Source: ChEMBL document CHEMBL1201862, “PubChem BioAssay data set” (2004)
Calls of active or inactive are those of the source. Cut-off read from the data, not from the text of the source, for most assays here: actives have a measured EC50 and inactives only a lower limit.

Tests used:
[1] = target: T1, Heat shock factor protein 1 (Mus musculus, UniProt P38532); assay: HSF1 potentiators in luciferase reporter cells, confirmation, cell-based, NIH3T3, luminescence, dose retest (AID 435004); type: functional;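 note: stress induced by proteasome inhibitor MG132 added 30 min after compound; luciferase reporter driven by HSF1 response element in NIH3T3 cells; actives raise luminescence as potentiators of the MG132 stress response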
T1 sequence (P38532 whole entry): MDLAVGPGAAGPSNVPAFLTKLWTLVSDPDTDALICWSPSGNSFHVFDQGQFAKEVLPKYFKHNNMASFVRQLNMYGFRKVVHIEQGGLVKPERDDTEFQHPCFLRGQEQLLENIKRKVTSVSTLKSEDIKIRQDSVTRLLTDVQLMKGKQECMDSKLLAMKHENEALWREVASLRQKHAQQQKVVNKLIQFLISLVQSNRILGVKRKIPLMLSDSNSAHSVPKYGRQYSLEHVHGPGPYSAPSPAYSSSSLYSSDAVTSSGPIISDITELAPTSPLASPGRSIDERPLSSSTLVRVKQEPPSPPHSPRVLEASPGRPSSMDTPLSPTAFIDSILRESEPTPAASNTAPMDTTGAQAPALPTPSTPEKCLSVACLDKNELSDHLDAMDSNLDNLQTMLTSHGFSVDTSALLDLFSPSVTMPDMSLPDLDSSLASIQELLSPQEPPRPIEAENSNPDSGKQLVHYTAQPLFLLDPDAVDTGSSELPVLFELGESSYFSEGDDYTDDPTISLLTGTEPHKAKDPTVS

[2] = target: T2, Protein skinhead-1 (Caenorhabditis elegans, UniProt P34707); type: functional
T2 sequence (P34707 whole entry): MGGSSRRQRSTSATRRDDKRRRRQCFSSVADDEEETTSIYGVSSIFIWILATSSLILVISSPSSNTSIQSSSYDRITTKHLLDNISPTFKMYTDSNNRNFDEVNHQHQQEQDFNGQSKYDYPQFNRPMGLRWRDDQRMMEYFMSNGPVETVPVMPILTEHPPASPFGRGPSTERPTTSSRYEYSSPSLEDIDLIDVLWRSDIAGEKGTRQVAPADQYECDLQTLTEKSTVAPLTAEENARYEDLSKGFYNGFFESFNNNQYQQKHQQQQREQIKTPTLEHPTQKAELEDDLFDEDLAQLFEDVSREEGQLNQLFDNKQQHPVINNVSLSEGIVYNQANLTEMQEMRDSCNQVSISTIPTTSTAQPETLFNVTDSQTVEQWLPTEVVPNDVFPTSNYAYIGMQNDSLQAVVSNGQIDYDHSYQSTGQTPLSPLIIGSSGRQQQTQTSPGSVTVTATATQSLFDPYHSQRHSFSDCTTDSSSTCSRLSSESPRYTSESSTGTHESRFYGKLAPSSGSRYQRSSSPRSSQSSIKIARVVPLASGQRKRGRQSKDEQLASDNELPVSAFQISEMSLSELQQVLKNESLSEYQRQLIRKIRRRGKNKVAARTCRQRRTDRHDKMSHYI

[3] = target: T3, RNA-binding protein pos-1 (Caenorhabditis elegans, UniProt G5EF15); assay: inhibitors of POS-1/mex-3 RNA binding, dose response, biochemical, fluorescence polarization (AID 1964);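 note: purified POS-1 fused to maltose binding protein made in E. coli; potency of compounds blocking POS-1 binding to fluorescent RNA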
T3 sequence (G5EF15 whole entry): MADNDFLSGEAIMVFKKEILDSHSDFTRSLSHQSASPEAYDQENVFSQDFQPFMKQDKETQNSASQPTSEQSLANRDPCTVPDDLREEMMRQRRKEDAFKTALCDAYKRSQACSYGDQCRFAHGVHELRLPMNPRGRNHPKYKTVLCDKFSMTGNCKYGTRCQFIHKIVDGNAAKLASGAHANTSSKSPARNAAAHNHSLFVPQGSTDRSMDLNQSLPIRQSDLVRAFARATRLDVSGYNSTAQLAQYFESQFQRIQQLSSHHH

[4] = target: T4, Zinc finger protein mex-5 (Caenorhabditis elegans, UniProt Q9XUB2); assay: MEX-5/TCR-2 RNA interaction inhibitors, dose response, biochemical, C. elegans, fluorescence polarization (AID 1960)
T4 sequence (Q9XUB2 whole entry): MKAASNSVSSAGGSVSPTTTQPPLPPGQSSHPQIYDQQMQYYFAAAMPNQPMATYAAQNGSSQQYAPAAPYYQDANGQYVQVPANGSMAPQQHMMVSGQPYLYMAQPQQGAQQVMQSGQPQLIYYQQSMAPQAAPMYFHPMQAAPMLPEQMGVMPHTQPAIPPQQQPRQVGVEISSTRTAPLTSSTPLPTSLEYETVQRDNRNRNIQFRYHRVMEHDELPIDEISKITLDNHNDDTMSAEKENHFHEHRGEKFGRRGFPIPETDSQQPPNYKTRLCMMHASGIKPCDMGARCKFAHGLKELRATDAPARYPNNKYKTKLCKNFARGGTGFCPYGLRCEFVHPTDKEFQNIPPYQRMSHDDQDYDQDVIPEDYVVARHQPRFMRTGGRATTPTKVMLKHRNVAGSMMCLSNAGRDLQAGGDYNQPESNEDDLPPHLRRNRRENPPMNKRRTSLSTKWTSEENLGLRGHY

[5] = Luminescence Cell-Based Dose Response HTS to Identify Activators of Luciferase Translation or Activity in H4 […] Cells. [Related pubchem assays: 1829 (Project Summary), 1814 (Primary HTS)]; type: functional
[6] = tested on: H4; assay: Luminescence Cell-Based Dose Response HTS to Identify Activators of 5'UTR Stem-Loop Driven Prion Protein mRNA Translation in H4 Neuroglioblastoma Cells. [Related pubchem assays: 1829 (Project Summary), 1814 (Primary HTS)]; type: functional; settings: Homo sapiens
[7] = inhibitors of firefly luciferase expression or activity, dose response, H4 neuroglioma cells, luminescence (AID 1990); type: functional, cell-based
[8] = Luminescence Cell-Based Dose Response HTS to Identify Inhibitors of 5'UTR Stem-Loop Driven Prion Protein mRNA Translation in H4 Neuroglioblastoma Cells. [Related pubchem assays: 1827 (Project Summary), 1813 (Primary HTS)]; type: functional
[9] = inhibitors of SNCA 5'UTR-driven reporter translation, confirmation, H4 neuroglioma cells, luminescence (AID 1988); type: functional, cell-based
[10] = target: T5, Corticotropin-releasing factor receptor 2/Corticotropin-releasing factor-binding protein (Homo sapiens, UniProt P24387+Q13324); assay: Dose Response confirmation of uHTS hits for small molecule antagonists of the CRF-binding protein and CRF-R2 receptor complex.; type: functional; settings: read-out: IC50_Mean
T5 sequence (Q13324 whole entry): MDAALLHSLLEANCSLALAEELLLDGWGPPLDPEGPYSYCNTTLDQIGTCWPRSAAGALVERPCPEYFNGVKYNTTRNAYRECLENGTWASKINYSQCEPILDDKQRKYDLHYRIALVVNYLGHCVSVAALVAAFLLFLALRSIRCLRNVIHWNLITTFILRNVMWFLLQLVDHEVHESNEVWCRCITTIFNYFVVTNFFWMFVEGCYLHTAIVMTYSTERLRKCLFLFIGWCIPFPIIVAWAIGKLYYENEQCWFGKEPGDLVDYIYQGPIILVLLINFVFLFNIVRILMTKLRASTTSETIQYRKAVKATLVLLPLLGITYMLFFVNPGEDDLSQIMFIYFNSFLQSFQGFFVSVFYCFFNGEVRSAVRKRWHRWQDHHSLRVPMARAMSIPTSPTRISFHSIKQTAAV
T5 sequence (P24387 whole entry): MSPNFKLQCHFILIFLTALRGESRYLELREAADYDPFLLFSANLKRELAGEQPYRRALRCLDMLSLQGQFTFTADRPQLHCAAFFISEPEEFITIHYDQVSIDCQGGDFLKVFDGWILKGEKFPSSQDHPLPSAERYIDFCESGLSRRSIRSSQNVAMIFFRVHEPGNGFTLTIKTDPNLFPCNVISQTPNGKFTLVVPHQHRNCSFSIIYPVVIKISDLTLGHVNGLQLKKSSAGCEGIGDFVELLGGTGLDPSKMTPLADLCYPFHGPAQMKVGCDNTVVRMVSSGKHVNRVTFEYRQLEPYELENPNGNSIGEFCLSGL

[11] = target: T5, Corticotropin-releasing factor receptor 2/Corticotropin-releasing factor-binding protein; assay: activators of CRF receptor 2 with binding protein – uHTS hits, confirmation (AID 602473); type: functional; settings: read-out: EC50_Mean
[12] = inhibitors of intracellular T. cruzi replication, confirmation, NIH3T3 host cells, beta-gal luminescence (AID 2044); type: functional, cell-based;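 note: intracellular parasites grown in NIH/3T3 mouse fibroblasts as host cells; luminescent beta-galactosidase reporter signal from transgenic T. cruzi replicating inside host cells; inhibitors lower the luminescence signal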
[13] = cytotoxicity toward NIH3T3 fibroblasts, dose response, counter-screen, cell-based, ATP luminescence, mouse fibroblasts (AID 2010); type: functional;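 note: cells exposed to compound for about 90 hours before reading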
[14] = tested on: BJ; assay: cytotoxicity toward BJ-TERT fibroblasts, dose response, cell-based, RAS-independent, luminescence (AID 1933); type: functional; settings: Homo sapiens
[15] = tested on: BJ; assay: cells; type: functional, cell-based; settings: Homo sapiens
[16] = tested on: BJ; assay: cytotoxicity toward BJ-TERT-LT-ST fibroblasts, dose response, cell-based, RAS-independent, luminescence (AID 1935); type: functional; settings: Homo sapiens;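 note: BJ fibroblasts immortalized with TERT plus LT and ST oncogenes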
[17] = cytotoxicity toward DRD oncogenic fibroblasts, dose response, cell-based, non-viral oncogenic, luminescence (AID 1934); type: functional; settings: Homo sapiens

With `CCC(C)NC(=O)c1nc(O)c2nnn(Cc3ccccc3Cl)c2n1` (stereo unspecified) the EC50 [1] was > 260 µM (inactive).
With `COC(=O)c1ccc(C#Cc2ccccc2)o1` the IC50 [2] was > 100 µM (inactive).
For `CCCCc1ccc(NS(=O)(=O)c2c(C)n(C)c(=O)n(C)c2=O)cc1`, the EC50 [1] was > 260 µM (inactive).
For `O=S(=O)(Cc1cc(Sc2ccccc2)nc(-c2ccccc2)n1)c1ccccc1`, the IC50 [2] was > 100 µM (inactive).
For `CCOc1ccc(Br)cc1S(=O)(=O)NC(=O)c1ccccc1`, the EC50 [3] was > 300 µM (not active) and the EC50 [4] was > 300 µM (not active).
For `COC(=O)c1ccc(-n2c(C)cc(C(=O)COC(=O)CC3Sc4ccccc4NC3=O)c2C)cc1` (stereo unspecified), the EC50 [3] was > 300 µM (not active) and the EC50 [4] was > 300 µM (not active).
In the case of `O=C(Nc1nc(-c2ccc(Cl)s2)cs1)c1ccco1`, the IC50 [2] is reported as 13.7 µM (active).
With `O=C(CC1Sc2ccccc2NC1=O)NNc1cc(Cl)ccc1Cl` (stereo unspecified) the IC50 [2] was > 100 µM (inactive).
For `Sc1nc(-c2ccc(Br)cc2)cn1CCc1ccccc1`, the EC50 [1] was > 260 µM (inactive).
For `O=[N+]([O-])c1ccc(Nc2ccc(Cl)cc2)nc1`, the IC50 [2] was > 100 µM (inactive).
For `Fc1ccccc1OCCSc1nc2ccccc2o1`, the IC50 [2] was 36.3 µM (active).
With `Cc1ccc(O)c(NC(=O)Cc2ccc3ccccc3c2)c1` the EC50 [1] was 7.7 µM (active).
With `CCCCCCC1CCC(C(=O)NC(CCSC)C(=O)NC(C(=O)OC)C(C)C)CC1` (stereo unspecified) the EC50 [1] was > 260 µM (inactive).
For `Brc1ccc2oc(-c3cc[nH]n3)cc2c1`, the EC50 [5] was 0.281 µM (active), the EC50 [6] was 93.8 µM (active) and the IC50 [2] was 80 µM (inactive).
For `COc1cc(/C=C2/N=C(c3ccccc3)OC2=O)c(F)cc1OCc1ccccc1`, the EC50 [3] was > 300 µM (not active) and the EC50 [4] was > 300 µM (inconclusive).
In the case of `CC1(O)C(=O)C=C2C=C(C3CC3)OC=C2C1=O` (stereo unspecified), the EC50 [3] is reported as 41.3 µM (active) and the EC50 [4] is reported as 17.8 µM (active).
With `Cc1cc(C(=O)N/N=C/c2ccc(-c3cccc(Cl)c3Cl)o2)[nH]n1` the EC50 [3] was 28.3 µM (active) and the EC50 [4] was 10.2 µM (active).
In the case of `COc1cc(CC(=O)N(c2ccccc2)c2nc(C)cs2)cc(OC)c1OC`, the EC50 [1] is reported as > 260 µM (inactive).
With `COc1ccc(/C=C/c2cc(C(F)(F)F)nc(O)n2)cc1OC` the EC50 [3] was > 300 µM (not active) and the EC50 [4] was > 300 µM (not active).
With `O=c1/c(=C/c2ccccc2)sc2nnc(-c3cccs3)n12` the EC50 [1] was 23.3 µM (active).
With `O=c1oc2ccccc2c(NC2CCCCC2)c1NS(=O)(=O)c1ccc(Cl)cc1` the EC50 [1] was 120 µM (active).
In the case of `CCOc1ccc(-c2nc(N)ncc2Oc2cccc(OC)c2)c(O)c1`, the EC50 [7] is reported as > 120 µM (not active), the EC50 [8] is reported as 16.4 µM (active) and the EC50 [9] is reported as > 60 µM (not active). For the same compound, the IC50 [10] was > 47.1 µM (inactive), the EC50 [11] was > 53 µM (inactive) and the IC50 [2] was > 100 µM (inactive).
In the case of `N#CCCn1cc(C=C(C#N)C#N)c(-c2ccc(-c3ccccc3)cc2)n1`, the EC50 [1] is reported as 7.51 µM (active).
In the case of `Cc1nc2nc(C)c(CCC(=O)N3CCN(c4ccccc4)CC3)c(C)n2n1`, the IC50 [2] is reported as > 100 µM (inactive).
With `O=C1NC(=O)N(c2ccccc2F)C(=O)/C1=C/c1cn(CC(=O)N2CCOCC2)c2ccccc12` the EC50 [3] was > 300 µM (not active) and the EC50 [4] was > 300 µM (not active).
With `Cc1cc(C)c(OCCN(C)Cc2ccccc2)c(Br)c1` the EC50 [12] was 1.68 µM (active), the EC50 [13] was > 60 µM (not active) and the IC50 [10] was > 47.1 µM (inactive). For the same compound, the EC50 [11] was > 53 µM (inactive).
For `Cc1ccc(C(=O)c2cc([N+](=O)[O-])ccc2N2CCN(C)CC2)cc1`, the EC50 [14] was 12.5 µM (active), the EC50 [15] was 21.1 µM (inconclusive) and the EC50 [16] was 13.5 µM (inconclusive). For the same compound, the EC50 [17] was 15.8 µM (inconclusive).
For `CN1CCN(C(=O)c2ccccc2N(Cc2ccccc2)S(C)(=O)=O)CC1`, the IC50 [2] was > 100 µM (inactive).
For `COc1ccc(/C=N/NC(=O)c2ccccc2NC(=O)c2ccco2)c(OC)c1`, the IC50 [10] was > 47.1 µM (inactive) and the EC50 [11] was > 53 µM (inactive).
With `CCN1CCN(Cc2c(O)ccc3c2O/C(=C\c2ccccc2)C3=O)CC1` the EC50 [3] was 30.3 µM (active) and the EC50 [4] was 57.9 µM (active).
With `O=C(Nc1ccccc1Oc1cccnc1)C1CCCN(Cc2ccccc2O)C1` (stereo unspecified) the IC50 [10] was > 47.1 µM (inactive) and the EC50 [11] was > 53 µM (inactive).
With `COc1ccc(/C=N/OCC(=O)N=Nc2c(O)[nH]c3ccc(Br)cc23)cc1` the IC50 [10] was 5.15 µM (active) and the EC50 [11] was > 53 µM (inactive).
